From ChEMBL document CHEMBL3885861, “Open TG-GATES”

Species: Rattus norvegicus
Test: Open TG-GATES - Regimen: Single
Assay type: toxicity, organism-based, Sprague-Dawley
Design: regimen Single, gender Male, age 6 weeks
Conditions: in vivo, po, route gavage; for APTT / Bas / Eos / Fbg / Hb / Ht / Lym / MCH / MCHC / MCV / Mono / Neu / PT / Plat / RBC / Ret / WBC: tissue Blood; for KIDNEY_L / KIDNEY_R / KIDNEY_TOTAL: tissue Kidney; for LIVER: tissue Liver; for ALP / ALT / AST / BUN / CRE / DBIL / GLC / K / LDH / Na / PL / RALB / TBIL / TC / TG / TP / gamma-GTP: tissue Plasma
[1] = 150 mg/kg, 3 h, dose level Middle
[2] = 150 mg/kg, 6 h, dose level Middle
[3] = 150 mg/kg, 9 h, dose level Middle
[4] = 150 mg/kg, 24 h, dose level Middle
[5] = 450 mg/kg, 3 h, dose level High
[6] = 450 mg/kg, 6 h, dose level High
[7] = 450 mg/kg, 9 h, dose level High
[8] = 450 mg/kg, 24 h, dose level High

## CC(CCc1ccccc1)NCC(O)c1ccc(O)c(C(N)=O)c1 (configuration not stated) [LABETALOL]
[1]
  TERMINAL_BW: 215.7 g
  APTT: 16.5 s
  Bas: 0%
  Eos: 0.8%
  Fbg: 263.6 mg/dL
  Hb: 12.4 g/dL
  Ht: 36.2%
  Lym: 77%
  MCH: 21.9 pg
  MCHC: 34.1%
  MCV: 64.2 fL
  Mono: 3%
  Neu: 18.6%
  PT: 13.3 s
  Plat: 115.1 x10_4/uL
  RBC: 564.6 x10_4/ul
  Ret: 8.3%
  WBC: 77.1 x10_2/uL
  KIDNEY_L: 1 g
  KIDNEY_R: 0.9 g
  KIDNEY_TOTAL: 1.9 g
  LIVER: 9.4 g
  ALP: 1401.4 IU/L
  ALT: 46 IU/L
  AST: 73.6 IU/L
  BUN: 12 mg/dL
  CRE: 0.2 mg/dL
  DBIL: 0.01 mg/dL
  GLC: 207.2 mg/dL
  K: 3.7 meq/L
  LDH: 48.6 IU/L
  Na: 142.2 meq/L
  PL: 125.2 mg/dL
  RALB: 2.5 g/dL
  TBIL: 0.042 mg/dL
  TC: 70 mg/dL
  TG: 49.4 mg/dL
  TP: 5.2 g/dL
  gamma-GTP: 1.4 IU/L
[2]
  TERMINAL_BW: 215.9 g
  APTT: 15.9 s
  Bas: 0%
  Eos: 1%
  Fbg: 269.8 mg/dL
  Hb: 12.5 g/dL
  Ht: 36.5%
  Lym: 74.6%
  MCH: 21.1 pg
  MCHC: 34.3%
  MCV: 61.7 fL
  Mono: 3.6%
  Neu: 20.2%
  PT: 13.1 s
  Plat: 106.3 x10_4/uL
  RBC: 593.6 x10_4/ul
  Ret: 7.9%
  WBC: 81 x10_2/uL
  KIDNEY_L: 0.9 g
  KIDNEY_R: 0.9 g
  KIDNEY_TOTAL: 1.8 g
  LIVER: 8.9 g
  ALP: 1487.8 IU/L
  ALT: 39.4 IU/L
  AST: 71 IU/L
  BUN: 9.4 mg/dL
  CRE: 0.2 mg/dL
  DBIL: 0.01 mg/dL
  GLC: 199.4 mg/dL
  K: 4.2 meq/L
  LDH: 44.8 IU/L
  Na: 142.8 meq/L
  PL: 126 mg/dL
  RALB: 2.4 g/dL
  TBIL: 0.04 mg/dL
  TC: 73.2 mg/dL
  TG: 41.8 mg/dL
  TP: 5.1 g/dL
  gamma-GTP: 1 IU/L
[3]
  TERMINAL_BW: 213.9 g
  APTT: 15.6 s
  Bas: 0%
  Eos: 0.8%
  Fbg: 287.8 mg/dL
  Hb: 12.5 g/dL
  Ht: 37.1%
  Lym: 77.6%
  MCH: 21.8 pg
  MCHC: 33.7%
  MCV: 64.8 fL
  Mono: 1.8%
  Neu: 19.6%
  PT: 13.2 s
  Plat: 106.5 x10_4/uL
  RBC: 572.4 x10_4/ul
  Ret: 8.2%
  WBC: 82.4 x10_2/uL
  KIDNEY_L: 0.9 g
  KIDNEY_R: 0.9 g
  KIDNEY_TOTAL: 1.9 g
  LIVER: 8.7 g
  ALP: 1516.4 IU/L
  ALT: 41.4 IU/L
  AST: 68.4 IU/L
  BUN: 10.2 mg/dL
  CRE: 0.2 mg/dL
  DBIL: 0.01 mg/dL
  GLC: 185.4 mg/dL
  K: 3.9 meq/L
  LDH: 42.4 IU/L
  Na: 144.6 meq/L
  PL: 136.6 mg/dL
  RALB: 2.6 g/dL
  TBIL: 0.036 mg/dL
  TC: 77.8 mg/dL
  TG: 56.6 mg/dL
  TP: 5.5 g/dL
  gamma-GTP: 1.2 IU/L
[4]
  TERMINAL_BW: 223.2 g
  APTT: 14.8 s
  Bas: 0%
  Eos: 1%
  Fbg: 345.2 mg/dL
  Hb: 13.1 g/dL
  Ht: 38.4%
  Lym: 71.6%
  MCH: 21 pg
  MCHC: 34.2%
  MCV: 61.4 fL
  Mono: 3.8%
  Neu: 23%
  PT: 12.7 s
  Plat: 116.5 x10_4/uL
  RBC: 625.6 x10_4/ul
  Ret: 8.2%
  WBC: 77.1 x10_2/uL
  KIDNEY_L: 0.9 g
  KIDNEY_R: 0.9 g
  KIDNEY_TOTAL: 1.8 g
  LIVER: 10.1 g
  ALP: 1738.6 IU/L
  ALT: 45.6 IU/L
  AST: 76 IU/L
  BUN: 16.6 mg/dL
  CRE: 0.2 mg/dL
  DBIL: 0.016 mg/dL
  GLC: 180.6 mg/dL
  K: 4.3 meq/L
  LDH: 72.6 IU/L
  Na: 143.2 meq/L
  PL: 159.6 mg/dL
  RALB: 2.6 g/dL
  TBIL: 0.038 mg/dL
  TC: 92 mg/dL
  TG: 96.4 mg/dL
  TP: 5.7 g/dL
  gamma-GTP: 1.2 IU/L
[5]
  TERMINAL_BW: 212.9 g
  APTT: 17.6 s
  Bas: 0%
  Eos: 1%
  Fbg: 255.2 mg/dL
  Hb: 12.2 g/dL
  Ht: 35.8%
  Lym: 76%
  MCH: 21.5 pg
  MCHC: 34.1%
  MCV: 62.9 fL
  Mono: 3.2%
  Neu: 19.4%
  PT: 13 s
  Plat: 109.9 x10_4/uL
  RBC: 569.4 x10_4/ul
  Ret: 8.1%
  WBC: 70.3 x10_2/uL
  KIDNEY_L: 1 g
  KIDNEY_R: 0.9 g
  KIDNEY_TOTAL: 1.9 g
  LIVER: 9.4 g
  ALP: 1740.2 IU/L
  ALT: 47 IU/L
  AST: 73 IU/L
  BUN: 13.2 mg/dL
  CRE: 0.2 mg/dL
  DBIL: 0.01 mg/dL
  GLC: 198.4 mg/dL
  K: 3.9 meq/L
  LDH: 56.8 IU/L
  Na: 142.4 meq/L
  PL: 124 mg/dL
  RALB: 2.4 g/dL
  TBIL: 0.04 mg/dL
  TC: 68.4 mg/dL
  TG: 39.2 mg/dL
  TP: 5.2 g/dL
  gamma-GTP: 1.4 IU/L
[6]
  TERMINAL_BW: 216.2 g
  APTT: 16.6 s
  Bas: 0%
  Eos: 1%
  Fbg: 288.6 mg/dL
  Hb: 12.2 g/dL
  Ht: 36.2%
  Lym: 75.4%
  MCH: 21.9 pg
  MCHC: 33.8%
  MCV: 64.8 fL
  Mono: 2.6%
  Neu: 20.4%
  PT: 12.6 s
  Plat: 112.1 x10_4/uL
  RBC: 561 x10_4/ul
  Ret: 8.2%
  WBC: 89.2 x10_2/uL
  KIDNEY_L: 1 g
  KIDNEY_R: 0.9 g
  KIDNEY_TOTAL: 1.9 g
  LIVER: 9 g
  ALP: 1401.4 IU/L
  ALT: 42.6 IU/L
  AST: 69.8 IU/L
  BUN: 10 mg/dL
  CRE: 0.2 mg/dL
  DBIL: 0.006 mg/dL
  GLC: 188.8 mg/dL
  K: 4.1 meq/L
  LDH: 53.4 IU/L
  Na: 143.4 meq/L
  PL: 131 mg/dL
  RALB: 2.5 g/dL
  TBIL: 0.038 mg/dL
  TC: 78 mg/dL
  TG: 23.2 mg/dL
  TP: 5.2 g/dL
  gamma-GTP: 1 IU/L
[7]
  TERMINAL_BW: 218.2 g
  APTT: 16 s
  Bas: 0%
  Eos: 0.8%
  Fbg: 285 mg/dL
  Hb: 12.8 g/dL
  Ht: 37.5%
  Lym: 75.4%
  MCH: 22.6 pg
  MCHC: 34.1%
  MCV: 66.1 fL
  Mono: 2%
  Neu: 21.4%
  PT: 12.9 s
  Plat: 98.6 x10_4/uL
  RBC: 567 x10_4/ul
  Ret: 8%
  WBC: 90.3 x10_2/uL
  KIDNEY_L: 0.9 g
  KIDNEY_R: 0.9 g
  KIDNEY_TOTAL: 1.8 g
  LIVER: 8.5 g
  ALP: 1515.4 IU/L
  ALT: 49.6 IU/L
  AST: 71.2 IU/L
  BUN: 9 mg/dL
  CRE: 0.2 mg/dL
  DBIL: 0.01 mg/dL
  GLC: 179 mg/dL
  K: 4.2 meq/L
  LDH: 41.2 IU/L
  Na: 144.2 meq/L
  PL: 135 mg/dL
  RALB: 2.5 g/dL
  TBIL: 0.044 mg/dL
  TC: 78 mg/dL
  TG: 30.6 mg/dL
  TP: 5.2 g/dL
  gamma-GTP: 1 IU/L
[8]
  TERMINAL_BW: 219.8 g
  APTT: 15.5 s
  Bas: 0%
  Eos: 1%
  Fbg: 290.8 mg/dL
  Hb: 13 g/dL
  Ht: 38.1%
  Lym: 74%
  MCH: 21.6 pg
  MCHC: 34.2%
  MCV: 62.9 fL
  Mono: 2.6%
  Neu: 22%
  PT: 12.6 s
  Plat: 115.1 x10_4/uL
  RBC: 605.2 x10_4/ul
  Ret: 7.5%
  WBC: 68.4 x10_2/uL
  KIDNEY_L: 1 g
  KIDNEY_R: 0.9 g
  KIDNEY_TOTAL: 1.9 g
  LIVER: 9.6 g
  ALP: 1840.6 IU/L
  ALT: 44 IU/L
  AST: 74 IU/L
  BUN: 17.4 mg/dL
  CRE: 0.2 mg/dL
  DBIL: 0.012 mg/dL
  GLC: 167.8 mg/dL
  K: 4.7 meq/L
  LDH: 55.2 IU/L
  Na: 142.2 meq/L
  PL: 144.8 mg/dL
  RALB: 2.6 g/dL
  TBIL: 0.03 mg/dL
  TC: 88 mg/dL
  TG: 57.8 mg/dL
  TP: 5.6 g/dL
  gamma-GTP: 1.2 IU/L
